Measurements from article PMC10889512, “Pyrimidine Schiff Bases: Synthesis, Structural Characterization and Recent Studies on Biological Activities” (International Journal of Molecular Sciences, 2024).

Columns and labels:
[1] = system: S. aureus 43300; experiment: Antimicrobial activity assay, microdilution; assay type: cell-based, Staphylococcus aureus; conditions: concentration range from 0.5 µg/mL to 256 µg/mL
Procedure: (§1) In vitro antimicrobial and antifungal activity was screened using microdilution and modified Richard’s medium. The assay was performed for compounds 4a, 4b, 4c, and 4d with seven reference microbial strains from ATTC (E. coli 25922, S. aureus 43300, K. pneumoniae 700603, A. baumannii 19606, P. aeruginosa 27853, E. faecalis 29212, and C. albicans 10231).
(§2) Seven reference strains from the ATCC collection (Escherichia coli 25922, Staphylococcus aureus 43300, Klebsiella pneumoniae 13883, Acinetobacter baumannii 19606, Pseudomonas aeruginosa 27853, Enterococcus faecalis 29212, and Candida albicans 10231) were used. The assay was performed according to a modified version of Richard et al.’s protocol and ISO standards 20776-1:2019 and 16256:2021 [78, 79]. Microdilution with spectrophotometric measurement was used to calculate MIC50 (minimal inhibitory concentration which decreased the microorganisms’ viability to 50%) values. Briefly, compounds were prepared 100× concentrated in DMSO, and during the whole experiment, they were diluted to 1× with TSB. Serial dilutions of tested compounds were made directly on plates at a concentration range of 0.5 to 256 µg/mL. Microorganisms were incubated for 24 h at 37 °C (bacteria) or 25 °C (yeast) on Petri dishes with TSA. The bacteria/yeast suspensions were prepared at a density 5 × 10^5 CFU/mL (for bacteria) or 0.5–2.5 × 10^5 CFU/mL (for yeast) with TSB. Also, appropriate controls were contained in the experiment: the positive control consisted of a specific strain in TSB, and the negative control was TSB alone. To ensure that used strains were not modified and were still responding to antibacterial/antifungal compounds established by EUCAST, additional tests were conducted with levofloxacin, gentamicin, and amphotericin B. Microplates were incubated on a shaker for 24 h at 37 ± 1 °C or 25 ± 1 °C for the bacteria and yeast strains, respectively. After the incubation, spectrophotometric measurement was performed at 580 nm. MIC50 was calculated by comparing the results obtained for experimental sets with positive controls. Next, 50 µL aliquots of 1% (m/v) TTC solution were added to each well. The plates were incubated on the shaker for 24 h at 37/25 °C. In living microbial cells, colourless TTC is converted into red formazan crystals, which allows for visual observation and MBC/MFC (minimal bactericidal/fungicidal concentration) value assessment.

[2] = system: P. aeruginosa 27853; experiment: Antimicrobial activity assay, microdilution; assay type: cell-based, Pseudomonas aeruginosa; conditions: concentration range from 0.5 µg/mL to 256 µg/mL
Procedure: as §1, §2

[3] = system: A172 cells; experiment: Flow cytometry FDA/PI staining, cell viability, A172; assay type: cell-based, human
Procedure: A detailed analysis of potential cytotoxic mechanisms has been performed only for the selected compound (4b) where the IC50 values under 100 µM were detected in the screening NR assay. Flow cytometry was performed on the A172 and AGS cell lines. Cells were incubated with compound 4b at IC50 for 24, 48, and 72 h before analysis. Fluorescein diacetate (FDA) and propidium iodide (PI) were used as indicators for viable and nonviable (necrotic) cells. Most of the events were captured in the first and the fourth quadrant, which represent viable and necrotic cells, respectively. […] Similar results were obtained for the AGS cell line (Figure 8B), where the viability was 60.95%/55.10%/44.99% after the same incubation periods, respectively. Some events occurred in the second quadrant, but it was difficult to unequivocally categorize them into viable or nonviable (apoptotic/necrotic) cell populations, and thus more sensitive dyes, able to distinguish between the types of cell death, were needed.
Two approaches for flow cytometry were used—FDA/PI staining to determine cell viability and annexin V/PI staining for cell death pathway determination.
For cell viability determination, cells were plated in 6-well plates at a density of 1 × 10^5 cells/well and incubated for 24 h at 37 °C, 5% CO2 and in a humidified atmosphere. Next, cells were treated with 4b at a concentration calculated as IC50 in neutral red uptake assay. After 24, 48, and 72 h incubation, the cells (either adhered or floating) were collected, centrifuged at 1600 rpm, and washed with PBS. FDA and PI stock solution at a 1 mM concentration were prepared in DMSO and H2O, respectively. After centrifugation and supernatant discarding, cells were stained with FDA at a final concentration of 1 µM prepared in PBS and incubated in the dark. After 15 min, they were centrifuged at 1600 rpm, resuspended in ice-cold PBS, and placed on ice. Samples were stained with 1 µM PI for 2 min before the cytometry evaluation. […]

[4] = system: C. albicans 10231; experiment: Antifungal activity assay, microdilution; assay type: cell-based, Candida albicans; conditions: concentration range from 0.5 µg/mL to 256 µg/mL
Procedure: as §1, §2

Structure (SMILES): Cc1nc(-c2ccccc2)nc(Nc2ccc(F)cc2)c1C=Nc1cccc(Cl)c1 [compound 4b, 5-{[(3-chlorophenyl)imino]methyl}-N-(4-fluorophenyl)-6-methyl-2-phenylpyrimidin-4-amine]
- MIC and MBC/MFC activity [1]: Neither MIC nor MBC/MFC activity was observed
- MIC and MBC/MFC activity [2]: Neither MIC nor MBC/MFC activity was observed
- Q1 events (viable cells; viability), FDA/PI ([3]; A172, at IC50, 24 h): 59.32%
- Q1 events (viable cells; viability), FDA/PI ([3]; A172, at IC50, 48 h): 50.98%
- Q1 events (viable cells; viability), FDA/PI ([3]; A172, at IC50, 72 h): 43.88%
- MIC and MBC/MFC activity [4]: Neither MIC nor MBC/MFC activity was observed
